{"source": "ChEMBL document CHEMBL3044721", "about": "“Homology modeling of human CCR2 receptor” (Med Chem Res, 2011)", "target": "C-C chemokine receptor type 2 (Homo sapiens, UniProt P41597)", "sequence (P41597 whole entry)": "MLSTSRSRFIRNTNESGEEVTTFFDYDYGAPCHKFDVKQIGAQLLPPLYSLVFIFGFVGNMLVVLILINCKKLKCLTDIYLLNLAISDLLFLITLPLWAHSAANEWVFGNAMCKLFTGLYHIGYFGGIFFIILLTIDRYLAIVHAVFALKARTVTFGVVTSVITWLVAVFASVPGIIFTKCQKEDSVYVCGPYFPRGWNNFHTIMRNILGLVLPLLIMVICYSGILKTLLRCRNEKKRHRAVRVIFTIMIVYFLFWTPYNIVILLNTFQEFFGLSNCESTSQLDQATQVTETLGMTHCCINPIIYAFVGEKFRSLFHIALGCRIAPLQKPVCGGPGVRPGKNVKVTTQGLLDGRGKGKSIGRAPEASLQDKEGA", "assay": "Antagonist activity at Homo sapiens (human) CCR2 receptor"}
{"smiles": "CO[C@@H]1COCC[C@@H]1N[C@@H]1CC[C@](C(=O)N2CCc3ncc(C(F)(F)F)cc3C2)(C(C)C)C1", "values": [{"measurement": "IC50", "result": 5, "unit": "nM"}]}
{"smiles": "O=C(NCc1cc(C(F)(F)F)cc(C(F)(F)F)c1)[C@H](NCCN1CCCCC1)c1ccsc1", "values": [{"measurement": "IC50", "result": 39, "unit": "nM"}]}
